How the values were obtained:
[1] = Liquid; for mass density: 293.2 K, 101.33 kPa, Vibrating tube method
[2] = refractive index (Na D-line) (dimensionless); settings: 293.2 K; 101.33 kPa; Liquid; Standard Abbe refractometry

CCCCCCO [hexan-1-ol]
Settings	mass density [kg/m3]	refractive index
[1]	816.31	–
[2]	–	1.4207

[1]
Settings	vapor or sublimation pressure [kPa]
369.8 K	10
385.7 K	20
395.7 K	30
403.2 K	40
403.4 K	40
409.3 K	50
414.5 K	60
419 K	70
423 K	80
426.5 K	90
429.6 K	99.7

CCO [ethanol]
Settings	mass density [kg/m3]	refractive index
[1]	789.91	–
[2]	–	1.3612

[1]
Settings	vapor or sublimation pressure [kPa]
302.4 K	10
315.4 K	20
323.6 K	30
329.7 K	40
330 K	40
334.7 K	50
338.8 K	60
342.4 K	70
345.6 K	80
348.5 K	90
351.1 K	100

CCCCCO [pentan-1-ol]
Settings	mass density [kg/m3]	refractive index
[1]	814.16	–
[2]	–	1.4097

[1]
Settings	vapor or sublimation pressure [kPa]
354 K	10
368.7 K	20
378 K	30
384.7 K	40
385.3 K	40
391 K	50
395.9 K	60
400.2 K	70
403.9 K	80
407.3 K	90
410.4 K	100

C=C(C)[C@H]1CC=C(C)CC1 [(R)-1-methyl-4-(1-methylethenyl)cyclohexene]
Settings	mass density [kg/m3]	refractive index
[1]	814.83	–
[2]	–	1.473

[1]
Settings	vapor or sublimation pressure [kPa]
375.5 K	10
394.5 K	20
403.2 K	27.48
406.5 K	30
415.7 K	40
415.8 K	40
423.2 K	49.74
423.4 K	50
429.8 K	60
435.5 K	70
440.5 K	80
445 K	90
450 K	100

CC(C)O [propan-2-ol]
Settings	mass density [kg/m3]	refractive index
[1]	785.42	–
[2]	–	1.3771

[1]
Settings	vapor or sublimation pressure [kPa]
307.1 K	10
319.9 K	20
328 K	30
334 K	40
334.1 K	40
338.8 K	50
342.9 K	60
346.5 K	70
349.7 K	80
352.5 K	90
355 K	100

CCCCO [butan-1-ol]
Settings	mass density [kg/m3]	refractive index
[1]	810.28	–
[2]	–	1.3993

[1]
Settings	vapor or sublimation pressure [kPa]
337.2 K	10
351.1 K	20
360 K	30
366.7 K	40
372.1 K	50
376.6 K	60
380.5 K	70
384 K	80
387.2 K	90
390.1 K	100

CCCO [propan-1-ol]
Settings	mass density [kg/m3]	refractive index
[1]	801.33	–
[2]	–	1.3851

[1]
Settings	vapor or sublimation pressure [kPa]
319.6 K	10
332.8 K	20
341.3 K	30
347.7 K	40
352.7 K	50
357.1 K	60
360.8 K	70
364.1 K	80
367.1 K	90
369.8 K	100

From the NIST ThermoML archive (doi:10.1021/je300347z)
